The record followed here is PMC9228811, “Identification and Characterization of a Potential Antimicrobial Peptide Isolated from Soil Brevibacillus sp. WUL10 and Its Activity against MRSA Pathogens” (Tropical Medicine and Infectious Disease, 2022).

Values after ≈ are worked out from the molar mass of the structure shown. Where two headings read alike, the source gives them in different places. No end group written: not given here.

Assay [1] has as its system MRSA isolate 1096. The assay can be described thus: Agar well diffusion assay. It counts as cell-based, Staphylococcus aureus. To be noted: Table 1 experiment, mean ± SD, n = 3. How it is done: (§1) WUL10 colony was inoculated in 50 mL of half formula of Luria-Bertani (half LB) broth (Titan Biotech Ltd., Rajasthan, India), and incubated at 30 °C, 150 rpm overnight. The culture was adjusted the turbidity equivalent to 0.5 McFarland standard by 0.85% NaCl, and then, 2 mL of this preculture was transferred in 200 mL of half LB broth. The culture was shaken at 30 °C, 150 rpm for 7 days, and an aliquot of samples (2 mL) was collected at different time interval. One mL of sample was measured the cell growth by spectrophotometer at 625 nm (Thermo Fisher Scientific, Waltham, MA, USA). The remaining sample was centrifuged at 10,000× g, 4 °C for 30 min (Sigma-Aldrich Co., St. Louis, MO, USA), and the CFS was examined for the antimicrobial activity against all indicator strains by agar well diffusion assay. Three replicates of experiments were carried out, and the zone of inhibition was reported as mean ± SD.
(§2) The colonies of indicator strains were inoculated in 9 mL of sterile 0.85% NaCl, and the cell suspensions were adjusted the turbidity comparably to 0.5 McFarland standard. They were swabbed onto the MH agar, and the wells were punched onto the agar using a pipette tip. One hundred µL of CSF or purified substance of WUL10 was loaded into each well, and the plates were incubated at 37 °C for 24 h. […] The experiments were performed in three independent experiments, and the inhibition zone was measured and reported as mean ± SD [21].
(A growth-free zone around the sample is the usual read-out of agar diffusion tests.)

The test system of assay [2] is MRSA isolate 2468. Put plainly: Agar well diffusion assay. To be noted: mean ± SD, n = 3. It counts as cell-based, Staphylococcus aureus. As to the method: as §1, §2
For assay [3], the system named is MRSA isolate 142. The assay can be described thus: Agar well diffusion assay. To be noted: Table 1 experiment, mean ± SD, n = 3. In kind it is cell-based, Staphylococcus aureus. How it is done:
as §1, §2

The test system of assay [4] is S. aureus TISTR 517. Put plainly: Agar well diffusion assay. In kind it is cell-based, Staphylococcus aureus. Particulars: mean ± SD, n = 3. How it is done:
as §1, §2

Assay [5] relates to S. aureus TISTR 517. Put plainly: microbe, parasite or virus in culture. It counts as cell-based, Staphylococcus aureus. How it is done: (§3) Determination of MIC by broth microdilution was followed the Clinical and Laboratory Standard Institute (CLSI) guidelines. Cation-adjusted Mueller–Hinton broth (CAMHB) was used as a diluent. The purified substance (100 μL) was prepared by making the 2-fold dilution in the range of 0.125–32 μg/mL, and an aliquot (10 μL) of diluted suspension of the indicator strains (5 × 10^5 CFU/mL) was added into each well. Indicator strains without sample were a positive control, while CAMHB alone was the negative control. The 96-well plates were incubated at 37 °C for 24 h and measured the bacterial growth. […] MBC was determined by further spreading 10 µL of sample in each well on MH agar and incubated at 37 °C overnight.
(§4) The peptide sequence of the purified substance of WUL10 was analyzed by the Q-Exactive HF LC-MS/MS Orbitrap system. Briefly, the protonated peptides were first desalted on-line on a reverse-phase C18 PepMap 100 trapping column before being resolved onto a C18 PepMap 100 capillary column with a 70 min gradient of 0.1% HCO2H/H2O (mobile phase (MP): A) and 0.1% HCO2H/CH3CN (MP: B) at a flow rate of 300 nL/min. Peptides were analyzed by applying a data-dependent Top5 acquisition mode followed by a higher-energy collisional dissociation (HCD) at collision energy of 28. Full-scan (MS) mass spectra were acquired from m/z 400 to 2000 with an AGC target set at 3 × 10^6 ions and a resolution of 120,000. MS/MS scan was initiated when the ACG target reached 2 × 10^5 ions and a resolution of 30,000. The raw LC-MS file from LC-MS/MS was imported to PeakX studio 10.0 (Bioinformatics Solutions Inc., Waterloo, CA, USA). The peptide ion intensity with +2 to +5 charge states was automated de novo peptide sequenced with default parameters with minor modifications. Briefly, mass error tolerance for MS and MS/MS were 15 ppm and 0.1 Da, respectively. HCD-fragmentation series on b- and y-ion series were used to predict the peptide sequence. The confidence score was set at the high level of confidence to obtain a reliable set of high-precision peptides. The acceptable de novo peptide sequences were achieved by filtering average local confidence (ALC) to ≥50%. The acceptable peptide sequences with an average local confidence (ALC) threshold of ≥50% were submitted to the antimicrobial peptide scanner to analyze the probability of antimicrobial peptides. A number of resulting peptides (18 synthetic peptides) were synthesized by Kelowna International Scientific Inc. (Taipei City, Taiwan) with purity of more than 85%, and they were prepared in a 2-fold dilution with CAMHB before examining the antimicrobial activity by broth microdilution. MIC and MBC were measured from 3 independent replicates.

Assay [6] concerns MRSA isolate 1096. Put plainly: Broth microdilution MIC and MBC (CLSI). It counts as cell-based. To be noted: Staphylococcus aureus. As to the method: as §3
Assay [7] concerns MRSA isolate 142. The assay can be described thus: Broth microdilution MIC and MBC (CLSI). To be noted: Staphylococcus aureus. In kind it is cell-based. As to the method: as §3
(Broth dilution looks for growth in wells or tubes with falling amounts of substance.)

Assay [8] relates to MRSA isolate 2468. The assay can be described thus: microbe, parasite or virus in culture. It counts as cell-based, Staphylococcus aureus. As to the method: as §3, §4
Setting [9] is: antibiotic 30 µg, Table 1 experiment.
The mark [10] stands for this setting: antibiotic 30 µg, Table 4 experiment.
[11] abbreviates: antibiotic 1 µg, Table 1 experiment.
Setting [12] is: broth microdilution, CAMHB, 37 °C 24 h, n = 3.

Regarding `CO[C@@]1(NC(=O)Cc2cccs2)C(=O)N2C(C(=O)O)=C(COC(N)=O)CS[C@@H]21` [Cefoxitin], the “Zone of Inhibition” value with MRSA isolate 1096 [1] (antibiotic 30 µg) came to 0.00 ± 0.00 mm; with MRSA isolate 2468 [2] (setting [9]), 0.00 ± 0.00 mm; with MRSA isolate 142 [3] (antibiotic 30 µg) it was 0.00 ± 0.00 mm; with S. aureus TISTR 517 [4] (setting [9]) it was 32.68 ± 0.15 mm; in the assay with S. aureus TISTR 517 [4] (setting [10]), 32.77 ± 0.55 mm. Besides, the MIC with S. aureus TISTR 517 [5] (Staphylococcus aureus, TISTR517, broth microdilution, CAMHB, 37 °C 24 h, n = 3, read-out: MIC) was found to be 2 µg/mL (≈ 4.68 µM).
With `Cc1onc(-c2ccccc2)c1C(=O)N[C@@H]1C(=O)N2[C@@H]1SC(C)(C)[C@@H]2C(=O)O` [Oxacillin], the “Zone of Inhibition” value in the assay on MRSA isolate 1096 [1] (antibiotic 1 µg) came to 0.00 ± 0.00 mm; with MRSA isolate 2468 [2] (setting [11]) it was 0.00 ± 0.00 mm; with MRSA isolate 142 [3] (antibiotic 1 µg) it was 0.00 ± 0.00 mm; in the assay with S. aureus TISTR 517 [4] (setting [11]), 29.29 ± 0.39 mm.
Consider `CN[C@H](CC(C)C)C(=O)N[C@H]1C(=O)N[C@@H](CC(N)=O)C(=O)N[C@H]2C(=O)N[C@H]3C(=O)N[C@H](C(=O)N[C@H](C(=O)O)c4cc(O)cc(O)c4-c4cc3ccc4O)[C@H](O)c3ccc(c(Cl)c3)Oc3cc2cc(c3O[C@@H]2O[C@H](CO)[C@@H](O)[C@H](O)[C@H]2O[C@H]2C[C@](C)(N)[C@H](O)[C@H](C)O2)Oc2ccc(cc2Cl)[C@H]1O` [Vancomycin], for which the “Zone of Inhibition” value in the assay on MRSA isolate 2468 [2] (setting [10]) came out at 26.75 ± 0.18 mm. Moreover, the MBC in the assay with MRSA isolate 1096 [6] was determined as 2 µg/mL (≈ 1.38 µM); in the assay with MRSA isolate 142 [7], 2 µg/mL (≈ 1.38 µM); with MRSA isolate 2468 [8] (Staphylococcus aureus) it was 2 µg/mL (≈ 1.38 µM); with S. aureus TISTR 517 [5] (Staphylococcus aureus, TISTR517), 2 µg/mL (≈ 1.38 µM). For the same molecule, the MIC against MRSA isolate 1096 [6] (24 h) worked out at 2 µg/mL (≈ 1.38 µM); with MRSA isolate 142 [7] (24 h), 2 µg/mL (≈ 1.38 µM); in the assay on MRSA isolate 2468 [8] (Staphylococcus aureus, 24 h) it was 2 µg/mL (≈ 1.38 µM); in the assay on S. aureus TISTR 517 [5] (Staphylococcus aureus, TISTR517, 24 h), 2 µg/mL (≈ 1.38 µM).
For KVLVKYLGGLLKLAALMV [synthetic peptide], the MIC in the assay on MRSA isolate 2468 [8] (setting [12]) and against S. aureus TISTR 517 [5] (setting [12]) was 16 µg/mL in each case.
